Measured values published in patent US20050009132A1, “Culture medium for detecting and/or discriminating enterococcus and method therefor” (priority 2001, published 2005).

Tested on: Gram-positive bacteria
Assay: Addition of Crystal Violet to culture medium, growth inhibition of Gram-positive bacteria
Assay type: cell-based
Conditions: concentration as low as

## CN(C)c1ccc(C(=C2C=CC(=[N+](C)C)C=C2)c2ccc(N(C)C)cc2)cc1 [Crystal Violet]
  Crystal Violet concentration at which inhibition of the growth of a large quantity of Gram-positive bacteria is observed: 0.1 mg/L
